One data set deals with NMDA receptor. Nature of the data set: NMDA binding (antagonist radioligand). As to conditions: 100 µM; rat cerebral cortex. The method, then:
(§1) Binding/functional studies were carried out commercially in Eurofins Laboratories (Poitiers, France) and Eurofins Panlabs Discovery Services Taiwan, Ltd. (New Taipei City, Taiwan) using testing procedures that were reported previously (for details see Table S2).
(§2) Table S2. Radioligand binding and functional assays. […]
NMDA (antagonist radioligand) […]
(§3) TRPV1 (VR1) (h) (antagonist effect) […]
(§4) Assays were performed commercially in Eurofins Laboratories (Poitiers, France) or Eurofins Panlabs Discovery
(§5) Services Taiwan, Ltd. (New Taipei City, Taiwan). […]

The target in a further data set is T1, N-type Ca^2+ channel (Rattus norvegicus, UniProt Q02294).
T1 construct: Rat cerebral cortex; tissue Eurofins; host or cells: rat cerebral cortex
T1 sequence (Q02294 whole entry): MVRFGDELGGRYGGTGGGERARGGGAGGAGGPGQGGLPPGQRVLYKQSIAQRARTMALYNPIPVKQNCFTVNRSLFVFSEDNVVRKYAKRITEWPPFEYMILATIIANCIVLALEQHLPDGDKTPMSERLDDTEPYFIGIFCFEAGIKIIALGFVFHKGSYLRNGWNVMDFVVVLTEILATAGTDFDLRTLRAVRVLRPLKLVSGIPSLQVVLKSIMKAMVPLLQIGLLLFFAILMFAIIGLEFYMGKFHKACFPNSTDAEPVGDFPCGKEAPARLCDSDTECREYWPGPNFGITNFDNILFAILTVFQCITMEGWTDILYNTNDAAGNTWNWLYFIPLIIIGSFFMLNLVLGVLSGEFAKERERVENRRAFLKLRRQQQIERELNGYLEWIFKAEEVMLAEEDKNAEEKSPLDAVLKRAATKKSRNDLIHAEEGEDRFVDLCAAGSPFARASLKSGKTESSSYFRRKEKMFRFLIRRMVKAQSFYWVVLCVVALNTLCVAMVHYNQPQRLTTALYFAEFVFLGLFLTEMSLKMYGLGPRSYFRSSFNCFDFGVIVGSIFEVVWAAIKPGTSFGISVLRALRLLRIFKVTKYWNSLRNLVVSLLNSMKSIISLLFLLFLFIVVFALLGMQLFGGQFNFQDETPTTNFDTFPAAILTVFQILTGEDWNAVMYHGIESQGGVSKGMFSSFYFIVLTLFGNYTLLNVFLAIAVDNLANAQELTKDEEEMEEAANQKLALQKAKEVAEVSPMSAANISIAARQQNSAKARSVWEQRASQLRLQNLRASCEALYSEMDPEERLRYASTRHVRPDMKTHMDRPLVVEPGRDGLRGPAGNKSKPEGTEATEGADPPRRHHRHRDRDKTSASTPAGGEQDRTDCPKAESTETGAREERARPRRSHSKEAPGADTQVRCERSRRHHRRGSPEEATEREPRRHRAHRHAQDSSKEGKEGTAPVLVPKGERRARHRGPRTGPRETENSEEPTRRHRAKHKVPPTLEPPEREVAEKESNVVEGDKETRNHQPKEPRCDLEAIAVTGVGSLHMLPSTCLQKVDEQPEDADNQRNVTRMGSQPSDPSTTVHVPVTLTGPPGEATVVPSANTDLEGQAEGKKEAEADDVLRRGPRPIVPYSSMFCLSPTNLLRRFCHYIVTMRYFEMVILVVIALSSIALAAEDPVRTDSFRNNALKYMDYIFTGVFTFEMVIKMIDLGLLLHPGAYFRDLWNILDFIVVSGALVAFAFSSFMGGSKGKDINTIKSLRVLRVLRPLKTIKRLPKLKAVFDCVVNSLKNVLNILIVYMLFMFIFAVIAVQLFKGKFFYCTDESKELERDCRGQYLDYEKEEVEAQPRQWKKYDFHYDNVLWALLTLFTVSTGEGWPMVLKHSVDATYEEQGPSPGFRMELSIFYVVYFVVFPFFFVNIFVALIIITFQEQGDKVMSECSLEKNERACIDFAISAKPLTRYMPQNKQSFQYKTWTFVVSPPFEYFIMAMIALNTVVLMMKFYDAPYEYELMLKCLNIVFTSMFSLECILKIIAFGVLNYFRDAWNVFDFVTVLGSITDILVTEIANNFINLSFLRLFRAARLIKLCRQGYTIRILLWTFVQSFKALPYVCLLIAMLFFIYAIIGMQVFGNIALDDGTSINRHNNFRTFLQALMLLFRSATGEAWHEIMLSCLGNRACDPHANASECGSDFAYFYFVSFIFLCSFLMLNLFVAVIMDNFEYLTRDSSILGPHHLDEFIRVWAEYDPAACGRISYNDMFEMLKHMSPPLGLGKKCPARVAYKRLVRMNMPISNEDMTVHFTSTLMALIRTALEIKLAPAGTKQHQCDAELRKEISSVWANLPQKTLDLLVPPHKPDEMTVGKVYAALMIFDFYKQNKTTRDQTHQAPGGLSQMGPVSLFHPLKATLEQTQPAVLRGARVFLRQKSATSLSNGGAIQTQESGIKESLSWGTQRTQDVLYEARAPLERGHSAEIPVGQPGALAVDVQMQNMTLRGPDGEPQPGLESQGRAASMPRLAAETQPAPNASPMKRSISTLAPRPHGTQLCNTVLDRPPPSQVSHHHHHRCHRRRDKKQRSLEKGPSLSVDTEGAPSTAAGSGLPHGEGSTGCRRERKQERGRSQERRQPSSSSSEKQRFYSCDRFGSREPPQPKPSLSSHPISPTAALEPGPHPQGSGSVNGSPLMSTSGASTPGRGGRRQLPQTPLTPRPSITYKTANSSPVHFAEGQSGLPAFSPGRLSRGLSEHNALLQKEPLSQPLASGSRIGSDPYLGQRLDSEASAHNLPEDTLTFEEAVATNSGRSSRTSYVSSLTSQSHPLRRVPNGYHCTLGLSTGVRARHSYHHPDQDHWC
T1 sequence (P54287 whole entry partner): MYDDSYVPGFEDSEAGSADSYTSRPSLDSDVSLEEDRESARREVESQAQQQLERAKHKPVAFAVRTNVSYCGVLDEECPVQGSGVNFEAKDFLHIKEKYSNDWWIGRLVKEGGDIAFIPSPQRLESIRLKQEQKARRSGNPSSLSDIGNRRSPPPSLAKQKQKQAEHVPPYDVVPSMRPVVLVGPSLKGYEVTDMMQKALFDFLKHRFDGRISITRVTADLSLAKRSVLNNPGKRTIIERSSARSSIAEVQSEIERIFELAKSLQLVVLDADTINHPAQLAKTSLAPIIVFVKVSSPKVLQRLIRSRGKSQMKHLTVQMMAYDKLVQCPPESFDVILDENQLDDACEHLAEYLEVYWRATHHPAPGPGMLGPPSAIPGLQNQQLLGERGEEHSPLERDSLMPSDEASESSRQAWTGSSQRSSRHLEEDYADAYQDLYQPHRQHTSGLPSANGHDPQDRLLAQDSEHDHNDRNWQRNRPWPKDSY
T1 sequence (P54290 25-944 partner limits assumed): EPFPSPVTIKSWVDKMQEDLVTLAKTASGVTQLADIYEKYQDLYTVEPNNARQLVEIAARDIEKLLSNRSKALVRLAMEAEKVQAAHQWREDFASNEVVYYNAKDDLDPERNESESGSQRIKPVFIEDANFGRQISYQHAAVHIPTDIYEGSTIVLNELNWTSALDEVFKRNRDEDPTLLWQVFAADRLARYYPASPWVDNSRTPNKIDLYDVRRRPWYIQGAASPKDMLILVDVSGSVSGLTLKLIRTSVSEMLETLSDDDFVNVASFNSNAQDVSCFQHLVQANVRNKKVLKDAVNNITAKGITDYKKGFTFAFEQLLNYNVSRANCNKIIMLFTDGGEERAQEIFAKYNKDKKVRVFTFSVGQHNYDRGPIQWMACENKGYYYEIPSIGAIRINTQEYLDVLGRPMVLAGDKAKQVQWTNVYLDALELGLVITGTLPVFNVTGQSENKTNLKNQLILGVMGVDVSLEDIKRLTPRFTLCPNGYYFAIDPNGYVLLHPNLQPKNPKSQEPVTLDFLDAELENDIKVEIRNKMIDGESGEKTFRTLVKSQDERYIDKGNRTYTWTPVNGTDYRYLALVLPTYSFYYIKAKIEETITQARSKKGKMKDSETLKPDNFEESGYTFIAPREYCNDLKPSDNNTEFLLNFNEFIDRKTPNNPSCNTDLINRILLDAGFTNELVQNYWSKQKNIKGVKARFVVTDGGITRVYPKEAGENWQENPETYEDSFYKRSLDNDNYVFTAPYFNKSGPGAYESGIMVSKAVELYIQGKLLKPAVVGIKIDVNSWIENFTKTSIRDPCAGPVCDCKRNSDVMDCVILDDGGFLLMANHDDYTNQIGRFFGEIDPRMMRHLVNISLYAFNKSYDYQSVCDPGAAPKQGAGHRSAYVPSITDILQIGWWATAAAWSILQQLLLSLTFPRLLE
T1 sequence (P54290 945-1091 partner limits assumed): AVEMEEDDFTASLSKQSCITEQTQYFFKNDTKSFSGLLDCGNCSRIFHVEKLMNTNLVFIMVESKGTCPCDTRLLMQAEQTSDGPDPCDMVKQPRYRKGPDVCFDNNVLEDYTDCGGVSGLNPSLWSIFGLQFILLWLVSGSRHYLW
Nature of the data set: N-type Ca2+ channel binding (antagonist radioligand). As to conditions: rat cerebral cortex, read-out: % Inhibition of Control Specific Binding, N-type Ca2+. The method, then:
as §1, §2
N-type Ca2+ (antagonist radioligand) […]
as §3, §4, §5

Another data set relates to GABA transporter. Briefly: GABA transporter binding (antagonist radioligand). As to conditions: 100 µM; rat cerebral cortex. The method, then: as §1, §2
GABA transporter (antagonist radioligand) […]
as §3, §4, §5

For the next data set, the system named is GABAA ion channel. Briefly: GABAA ion channel [3H]GABA binding (agonist radioligand). The following applies: 100 µM; rat cerebral cortex. The method, then: as §1, §2
GABAA ion channel [3H]GABA (agonist radioligand) […]
as §3, §4, §5

A further data set concerns the target T2, hERG (Homo sapiens, UniProt Q12809).
T2 construct: Eurofins
Nature of the data set: Potassium channel (hERG) binding. As to conditions: human recombinant HEK-293 cells expressing hERG, human recombinant HEK-293 cell, read-out: % Inhibition of Control Specific Binding, hERG. The method, then: as §1, §2
Potassium channel (hERG)
as §3, §4, §5

Data set [1] deals with fast voltage-gated sodium channels in rat prefrontal cortex pyramidal neurons. Briefly: Patch-clamp of fast sodium currents. The format is cell-based. The following applies: control = 1.0, n = 7. The method, then:
The methodology of slice preparation, slice preincubation, and patch-clamp technique was the same as in our previous studies. Compound 53 was tested at a concentration of 10 µM.
Thus, we determined the influence of 53 on fast voltage-gated sodium channels in rat prefrontal cortex pyramidal neurons (at a concentration of 10 μM) using the patch-clamp technique. Maximal currents were evoked by rectangular voltage steps to 0 mV. […] The effect was not strong, but statistically significant (1.0 in the control and 0.83 ± 0.03 after the application of 53, p < 0.01). It was possible to obtain partial wash-out (0.86 ± 0.03 and the current were normalized to the control level, n = 7, Figure 5).
Figure 5 (A) The influence of compound 53 on sodium current is shown on an example neuron. The current was evoked once every ten seconds by a rectangular voltage-step. […] (B) Example of the sodium current recordings in the control (black trace), after the application of the tested compound (blue trace), and after wash-out (red trace). (C) The averaged normalized maximal current amplitudes in the control, in the presence of 53, and after wash-out. The data were analyzed with a nonparametric repeated measures ANOVA followed by Dunn’s post hoc test. * p < 0.01 (n = 7).

Data set [2] is described as follows: Neurotoxicity, SH-SY5Y viability (MTS). The format is cell-based. The following applies: human, SH-SY5Y neuroblastoma cells, 10 and 50 µM, read-out: SH-SY5Y cell viability, % of the control. The method, then:
Moreover, the dose-dependent increase in the cells viability was found during the repeated experiment in lower concentrations (Figure 8B). […] Thus, the observed influence of this chemical group for neuronal cells is worth further detailed exploration.
Figure 8 The effect of 53 and the cytostatic drug doxorubicin (DX) on neuroblastoma SH-SY5Y cell line viability after 72 h of incubation at 37 °C, 5% CO2 in the concentration range 1–100 µM (A) and 0.001–1 µM (B). The data were analyzed with one-way ANOVA, followed by Bonferroni’s Comparison Test (Graph Pad Prism 8.0.1 software, San Diego, CA, USA)): *** p < 0.001, **** p < 0.0001 vs. negative control (DMSO 1% in growth media).

A further data set deals with mice. Nature of the data set: Capsaicin-induced hypothermia model / core body temperature. It is filed as in vivo. The following applies: i.p. 15 min before capsaicin 5 mg/kg; compound 60 50 mg/kg, BCTC 20 mg/kg. The method, then:
Capsaicin was dissolved in 1% DMSO and administered at a dose of 5 mg/kg at a time point 0 min. Compound 60 and BCTC (positive control) were suspended in 1% Tween 80 and administered 15 min before capsaicin (at time point -15 min). All compounds were injected i.p. at a constant volume of 10 mL/kg. Control animals received the respective vehicles (1% DMSO or 1% Tween 80). Changes in the rectal temperature were measured using an electronic thermometer (ThermoWorks, Alpine, UT, USA) by inserting the rectal probe to a depth of ~2 cm into the rectum of the mouse. The measurements were taken at −15, 0, 15, 30, 60, 90, 120, and 180 min. The differences in the rectal temperature from baseline (time -15 min for groups receiving compound 60 and BCTC in combination with vehicle or time 0 min for groups receiving vehicle and capsaicin or compound 60 and BCTC in combination with capsaicin) to the respective time point ΔT (°C) were then calculated and analyzed. The results are shown in Figure 4 (see Section 3 Results and Discussion).
Figure 4 Effects of compound 60 and BCTC alone (A) or in combination with capsaicin (B) on the core body temperature in mice. Capsaicin (CPS) was injected at 0 min, as indicated by the arrow. Compound 60 or BCTC were administered 15 min prior to CPS injection. The temperature was measured at −15, 0, 15, 30, 60, 90, 120, and 180 min. Since body temperature returned to control values 60 min after CPS injection, subsequent measurements are not shown. Control animals received vehicles (1% DMSO or 1% Tween 80). All the compounds were administered i.p. Each experimental group consisted of seven to eight animals. The data are presented as the mean differences (ΔT) in rectal temperature from baseline (time −15 for A and time 0 for B) to the respective time point. The data were analyzed with one-way ANOVA followed by Tukey’s post hoc test. ** p < 0.01, *** p < 0.001, **** p < 0.0001 vs. the control group; ^#### p < 0.0001 vs. the CPS-treated group.

Data set [3] is described as follows: PAMPA permeability (Pre-coated PAMPA Plate System Gentest). It is filed as in vitro ADME. As to conditions: read-out: Pe (permeability coefficient) ± SD.
Text: Caffeine (CFN) and norfloxacin (NFX) were used as the high- and low-permeable references, respectively.

T2 sequence (Q12809 whole entry): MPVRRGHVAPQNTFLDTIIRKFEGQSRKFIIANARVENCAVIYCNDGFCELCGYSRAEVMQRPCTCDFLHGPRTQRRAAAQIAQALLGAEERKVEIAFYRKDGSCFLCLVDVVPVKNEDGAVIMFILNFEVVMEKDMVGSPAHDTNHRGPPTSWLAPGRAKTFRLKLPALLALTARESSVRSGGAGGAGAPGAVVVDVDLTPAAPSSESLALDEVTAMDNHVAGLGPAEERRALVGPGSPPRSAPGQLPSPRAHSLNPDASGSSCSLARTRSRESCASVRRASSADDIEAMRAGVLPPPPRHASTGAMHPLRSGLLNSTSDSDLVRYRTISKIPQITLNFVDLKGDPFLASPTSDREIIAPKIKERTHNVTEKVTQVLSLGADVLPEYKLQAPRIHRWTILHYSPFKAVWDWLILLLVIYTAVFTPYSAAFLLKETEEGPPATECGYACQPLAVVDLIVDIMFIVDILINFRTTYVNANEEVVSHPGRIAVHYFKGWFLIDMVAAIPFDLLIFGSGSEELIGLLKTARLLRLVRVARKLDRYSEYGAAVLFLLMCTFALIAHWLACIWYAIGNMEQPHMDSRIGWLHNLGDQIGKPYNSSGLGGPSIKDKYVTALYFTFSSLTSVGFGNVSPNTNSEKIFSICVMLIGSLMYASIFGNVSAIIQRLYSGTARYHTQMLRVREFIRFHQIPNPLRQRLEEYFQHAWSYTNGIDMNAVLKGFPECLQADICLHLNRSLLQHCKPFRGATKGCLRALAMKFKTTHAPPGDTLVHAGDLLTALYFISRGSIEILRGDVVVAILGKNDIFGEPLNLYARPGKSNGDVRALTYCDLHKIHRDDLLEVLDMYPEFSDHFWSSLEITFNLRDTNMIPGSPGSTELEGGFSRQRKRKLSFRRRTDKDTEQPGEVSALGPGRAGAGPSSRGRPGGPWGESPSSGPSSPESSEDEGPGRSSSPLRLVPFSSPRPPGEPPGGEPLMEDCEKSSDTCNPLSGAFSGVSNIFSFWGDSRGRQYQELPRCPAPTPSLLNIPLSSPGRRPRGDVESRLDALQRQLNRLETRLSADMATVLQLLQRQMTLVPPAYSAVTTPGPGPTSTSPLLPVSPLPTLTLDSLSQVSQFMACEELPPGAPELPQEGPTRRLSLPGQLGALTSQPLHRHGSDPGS

In turn, `CC(=O)NC(C(=O)N1CCN(c2cccc(C(F)(F)F)c2)CC1)c1ccccc1` (centres unmarked) [Compound 53, N-(2-oxo-1-phenyl-2-(4-(3-(trifluoromethyl)phenyl)piperazin-1-yl)ethyl)acetamide] registered a melting point of 131.8 to 132.5 °C. Moreover, the “% Inhibition of Control Specific Binding, NMDA” value in the data set on NMDA receptor is 9.0 (100) %. Moreover, the inhibition at 100 µM on N-type Ca^2+ channel came out at 1.5%. In addition, the “% Inhibition of Control Specific Binding, GABA transporter” value with GABA transporter is 2.8 (100) %. The “% Inhibition of Control Specific Binding, GABAA ion channel” value in the data set with GABAA ion channel is −1.1 (100) %. Besides, the inhibition at 100 µM on hERG came out at 24%. For the same molecule, the “normalized maximal amplitude of sodium current after application” value in [1] (10 μM) came to 0.83 ± 0.03. In data set [1] (after 10 μM), the “normalized maximal amplitude of sodium current after wash-out” value is listed as 0.86 ± 0.03. Further, the viability at 72 h in data set [2] was at most 140%.

For `CC(=O)NC(C(=O)N1CCN(c2cccc(OC(F)(F)F)c2)CC1)c1ccccc1` (centres unmarked) [Compound 60, N-(2-oxo-1-phenyl-2-(4-(3-(trifluoromethoxy)phenyl)piperazin-1-yl)ethyl)acetamide], in the data set on mice, the “effect on capsaicin-induced hypothermia (co-administration)” value was “did not affect the capsaicin-induced hypothermia”. Moreover, the Papp in [3] was found to be 9.15 ± 0.78 ×10⁻⁶ cm/s.

The values above are taken from article PMC9221546, “New Phenylglycinamide Derivatives with Hybrid Structure as Candidates for New Broad-Spectrum Anticonvulsants” (Cells, 2022).
